These results are taken from patent US5624932A (priority 1995, dated 1997).

“Also recorded” adds a separate entry of the source.

Data set [1] concerns morphine-dependent rats. Set-up: species or system Wistar rats. The note with it: rat, in vivo.
In data set [2] the test system is opiate addicts. The note with it: in vivo.
Data set [3] relates to morphine-dependent monkeys. On the set-up: species or system rhesus monkeys (Macaca mulatta). The note with it: rhesus monkey, in vivo.
Data set [4] concerns dorsal root ganglion (DRG) neurons. The data set is classed as cell-based, mouse.
Data set [5] has the same test system. The note with it: nM-μM; cited from earlier work.
The conditions of data set [6]: in vivo; cited from earlier work.
In data set [7] the test system is chronic opioid-treated DRG neurons. The data set is classed as cell-based, mouse.
Data set [8] has as its system morphine-dependent monkeys. The note with it: rhesus monkey, in vivo.

Turning to `CCC(=O)C(CC(C)N(C)C)(c1ccccc1)c1ccccc1` (stereo not shown) [Methadone, methadone], in data set [1], the “prevention of body weight loss” value is recorded as 48.15% and the “suppression of other withdrawal symptoms” value is listed as 49.4%. In data set [1] (ip), the “effect on naloxone induced withdrawal symptoms” value is “suppressed”. In data set [1] (sc), the “effect on body weight loss” value is listed as “prevent further body weight loss”; the “second naloxone test, withdrawal symptoms” value is given as “less severe withdrawal symptoms in comparison to the morphine group, yet more severe when compare with the DHE group”; the “significance of effect on body weight loss vs untreated (saline) control” value is on record as “highly significant”. Moreover, in data set [2], the “addiction resulting from substitution treatment” value is on record as “invariably results in transfer to methadone addiction”, the “rebound of withdrawal symptoms” value was “often results in the rebound of withdrawal symptoms”, the “side effects during substitution treatment” value is listed as “negligible” and the “time before symptomatic relief” value is given as “one to several”. Further, in data set [3], the “Scores of withdrawal syndromes, 1st naloxone precipitation (X ± SD)” value worked out at 17.0 ± 4.6; the “Scores of withdrawal syndromes, 2nd naloxone precipitation (X ± SD)” value was 1.3 ± 1.2; the “naloxone precipitation test on day 9” value is recorded as “naloxone precipitated withdrawal symptoms”; the “naloxone withdrawal symptoms after maintenance or substitution treatment” value is “moderate naloxone withdrawal symptoms”. Further, in data set [3], the “withdrawal symptoms between injections during substitution” value is “some moderate withdrawal symptoms” and the “withdrawal symptoms during the first several days of substitution” value is “partially suppressed”. Besides, in data set [4], the “Alteration of action potential duration, opioid at high concentration” value is given as “inhibitory APD-shortening” and the “Alteration of action potential duration, opioid at low concentration” value is “excitatory APD-prolonging; also recorded: Prolongation”.

On to `C=CCN1CC[C@]23c4c5ccc(O)c4O[C@H]2C(=O)CC[C@@]3(O)[C@H]1C5` [naloxone], for which, in data set [1] (ip, 4 mg/kg), the “peak response of naloxone induced withdrawal symptoms” value is on record as no more than 15 min, the “time of maximum body weight loss after naloxone precipitation” value was 24 h and the “time to gradual weight recovery after naloxone precipitation” value is 90 h. Besides, the “effect of naloxone on the APD of naive DRG neurons” value in data set [5] is reported as “does not alter the APD; also recorded: ineffective”. Moreover, the “oral or sublingual bioavailability” value in data set [6] is reported as “low”. Moreover, the “naloxone effect on APD of chronic opioid-treated DRG neurons” value in data set [7] is given as “excitatory APD-prolonging effect; also recorded: prolongs the APD”.

`CN1CC[C@]23CCCC[C@H]2[C@H]1Cc1ccc(O)cc13` [Levorphenol]: in data set [4], the “Alteration of action potential duration, opioid at high concentration” value is given as “Shortening” and the “Alteration of action potential duration, opioid at low concentration” value is recorded as “Prolongation”.

Regarding `CN1CC[C@]23c4c5ccc(O)c4O[C@H]2[C@@H](O)C=C[C@H]3[C@H]1C5` [Morphine, morphine], in data set [1], the “prevention of body weight loss” value is 43.5% and the “suppression of other withdrawal symptoms” value was 45.5%. Moreover, in data set [1] (sc), the “time to complete recovery of weight loss” value is given as 48 h and the “time to reversal of body weight loss” value was 3 h. For the same molecule, the “time after withdrawal at which withdrawal symptoms began” value in data set [8] is reported as “Sixteen”.
